Source: ChEMBL document CHEMBL3233003, “Chromodomain antagonists that target the polycomb-group methyllysine reader protein chromobox homolog 7 (CBX7)” (J Med Chem, 2014)
The source made the active and inactive calls. The rule behind the calls is not given here. Starred links: 1 amine or outer side, 2 acyl side, 3 side chain; linkers in the order of their positions; H or OH if unused. Non-standard residues stand in square brackets, D forms with d. Residues, ends and D or L forms follow the SMILES beside them. *: point of attachment. Benzenesulfonyl(4-OMe) = COc1ccc(S(=O)(=O)*)cc1; Benzoyl(4-CO2Me) = COC(=O)c1ccc(C(=O)*)cc1; Benzoyl(4-COOH) = O=C(O)c1ccc(C(=O)*)cc1; Lys(Me3) = C[N+](C)(C)CCCC[C@H](N)C(=O)O; Benzoyl(4-Br) = O=C(c1ccc(Br)cc1)*; Ethylenediamine = C(CN[*:2])N[*:1]; Gly(cPent) = N[C@H](C(=O)O)C1CCCC1; X3 = COC(=O)c1ccc(S(=O)(=O)*)cc1; X6 = O=C(O)c1ccc(S(=O)(=O)*)cc1; Tos = Cc1ccc(S(=O)(=O)*)cc1; X2 = O=C(c1c[nH]c2ccccc12)*; NHCH(CH2OH)2 = OCC(CO)N*; X10 = O=C(Cc1ccccc1Br)*; X7 = O=S(=O)(c1cccnc1)*

Legend:
[1] = molecular target: T1, Chromobox protein homolog 7 (Homo sapiens, UniProt O95931); experiment: Binding affinity to CBX7 (unknown origin) by isothermal titration calorimetry assay
T1 sequence (O95931 whole entry): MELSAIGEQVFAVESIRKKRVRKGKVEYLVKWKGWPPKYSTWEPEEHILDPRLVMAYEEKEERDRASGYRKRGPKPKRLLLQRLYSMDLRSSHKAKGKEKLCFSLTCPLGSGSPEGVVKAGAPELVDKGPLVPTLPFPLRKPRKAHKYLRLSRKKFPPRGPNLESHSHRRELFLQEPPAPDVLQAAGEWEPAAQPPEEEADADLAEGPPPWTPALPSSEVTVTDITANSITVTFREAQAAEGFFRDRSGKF

[2] = molecular target: T1, Chromobox protein homolog 7; experiment: (§1) Displacement of FITC-labeled H3K27me3 from CBX7 (unknown origin) after 15 mins by fluorescence polarization assay
[3] = molecular target: T2, Chromobox protein homolog 8 (Homo sapiens, UniProt Q9HC52); experiment: Binding affinity to CBX8 (unknown origin) by isothermal titration calorimetry assay
T2 sequence (Q9HC52 whole entry): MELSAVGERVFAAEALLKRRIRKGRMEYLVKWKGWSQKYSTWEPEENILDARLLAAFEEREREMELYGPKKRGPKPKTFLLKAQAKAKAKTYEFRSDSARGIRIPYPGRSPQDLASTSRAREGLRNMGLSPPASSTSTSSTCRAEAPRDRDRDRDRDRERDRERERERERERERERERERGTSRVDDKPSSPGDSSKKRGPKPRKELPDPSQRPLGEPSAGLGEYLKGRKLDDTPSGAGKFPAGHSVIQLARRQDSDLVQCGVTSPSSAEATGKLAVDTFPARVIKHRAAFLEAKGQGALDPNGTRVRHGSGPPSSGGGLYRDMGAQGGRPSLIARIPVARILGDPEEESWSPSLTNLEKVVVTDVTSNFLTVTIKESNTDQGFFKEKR

[4] = molecular target: Chromobox protein homolog 1 (Homo sapiens, UniProt P83916); experiment: Binding affinity to CBX1 (unknown origin) by isothermal titration calorimetry assay
Chromobox protein homolog 1, sequence (P83916 whole entry): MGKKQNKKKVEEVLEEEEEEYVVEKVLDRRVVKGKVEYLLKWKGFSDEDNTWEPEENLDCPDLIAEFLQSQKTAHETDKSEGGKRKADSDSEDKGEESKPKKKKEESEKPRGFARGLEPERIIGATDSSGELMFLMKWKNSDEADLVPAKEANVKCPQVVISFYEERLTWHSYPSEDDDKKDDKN

[5] = molecular target: T3, E3 SUMO-protein ligase CBX4 (Homo sapiens, UniProt O00257); experiment: Binding affinity to CBX4 (unknown origin) by isothermal titration calorimetry assay
T3 sequence (O00257 whole entry): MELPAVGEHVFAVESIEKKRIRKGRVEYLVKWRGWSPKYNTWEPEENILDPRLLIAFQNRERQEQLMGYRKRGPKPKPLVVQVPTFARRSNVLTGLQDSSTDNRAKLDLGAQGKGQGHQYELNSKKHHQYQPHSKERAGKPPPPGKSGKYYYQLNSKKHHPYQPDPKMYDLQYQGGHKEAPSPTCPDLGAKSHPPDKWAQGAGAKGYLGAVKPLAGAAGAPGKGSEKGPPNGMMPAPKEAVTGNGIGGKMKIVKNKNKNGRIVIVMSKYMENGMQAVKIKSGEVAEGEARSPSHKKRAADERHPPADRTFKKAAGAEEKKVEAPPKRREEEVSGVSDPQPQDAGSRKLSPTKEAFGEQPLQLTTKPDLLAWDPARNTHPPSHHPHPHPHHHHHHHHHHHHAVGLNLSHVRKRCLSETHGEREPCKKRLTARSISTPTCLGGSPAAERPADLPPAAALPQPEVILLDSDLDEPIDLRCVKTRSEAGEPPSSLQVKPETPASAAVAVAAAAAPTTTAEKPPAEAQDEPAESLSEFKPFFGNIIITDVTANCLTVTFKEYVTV

[6] = molecular target: T4, Chromobox protein homolog 7 (Homo sapiens) (UniProt O95931); experiment: as §1
T4 sequence (whole entry): T1 sequence (O95931 whole entry)

| Molecule | Kd [1] [µM] | IC50 [2] [µM] | Kd [3] [µM] | other results |
| --- | --- | --- | --- | --- |
| CC(=O)N[C@@H](Cc1ccccc1)C(=O)N[C@@H](C)C(=O)N[C@@H](CC(C)C)C(=O)N[C@@H](CCCC[N+](C)(C)C)C(=O)N[C@H](CO)C(N)=O | 5.4 | 9 | 15 |  |
| C[C@H](NC(=O)Cc1ccccc1)C(=O)N[C@H](C(=O)N[C@@H](CCCC[N+](C)(C)C)C(=O)NC(CO)CO)C1CCCC1 | 4.1 |  | 15 |  |
| CC(=O)N[C@@H](Cc1ccccc1)C(=O)N[C@@H](C)C(=O)N[C@@H](Cc1ccc(O)cc1)C(=O)N[C@@H](CCCC[N+](C)(C)C)C(=O)N[C@@H](CO)C(N)=O (Ac-FAY[Lys(Me3)]S-NH2) |  |  | 12.3 |  |
| Cc1ccc(S(=O)(=O)NCC(=O)N[C@@H](C)C(=O)N[C@@H](CC(C)C)C(=O)N[C@@H](CCCC[N+](C)(C)C)C(=O)N[C@@H](CO)C(N)=O)cc1 (Tos-GAL[Lys(Me3)]S-NH2) |  | 34 |  |  |
| CC(C)C[C@H](NC(=O)[C@H](C)NC(=O)c1c[nH]c2ccccc12)C(=O)N[C@@H](CCCC[N+](C)(C)C)C(=O)N[C@@H](CO)C(N)=O (X2-AL[Lys(Me3)]S-NH2) |  | 67 |  |  |
| CC(C)C[C@H](NC(=O)[C@H](C)NC(=O)[C@H](Cc1ccccc1)NC(=O)c1ccc(Br)cc1)C(=O)N[C@@H](CCCC[N+](C)(C)C)C(=O)N[C@@H](CO)C(N)=O ({Benzoyl(4-Br)}-FAL[Lys(Me3)]S-NH2) | 0.28 | 4.6 | 1.5 |  |
| COC(=O)c1ccc(C(=O)N[C@@H](Cc2ccccc2)C(=O)N[C@@H](C)C(=O)N[C@@H](CC(C)C)C(=O)N[C@@H](CCCC[N+](C)(C)C)C(=O)N[C@@H](CO)C(N)=O)cc1 ({Benzoyl(4-CO2Me)}-FAL[Lys(Me3)]S-NH2) |  | 6.3 |  |  |
| COC(=O)c1ccc(C(=O)N[C@@H](Cc2ccccc2)C(=O)N[C@@H](C)C(=O)N[C@H](C(=O)N[C@@H](CCCC[N+](C)(C)C)C(=O)N[C@@H](CO)C(N)=O)C2CCCC2)cc1 ({Benzoyl(4-CO2Me)}-FA[Gly(cPent)][Lys(Me3)]S-NH2) | 0.2 |  | 1.78 |  |
| Ac-FALKS-NH2 |  |  |  | inhibition [6]: inactive |

Further lines, with some results ahead:

| Kd [1] [µM] | IC50 [2] [µM] | Kd [3] [µM] | Molecule | other results |
| --- | --- | --- | --- | --- |
| 2 | 11 | 14.2 | CC(=O)N[C@@H](Cc1ccccc1)C(=O)N[C@@H](C)C(=O)N[C@@H](CC(C)C)C(=O)N[C@@H](CCCC[N+](C)(C)C)C(=O)N[C@@H](CO)C(N)=O | Kd [4]: 43 µM; Kd [5]: 3.7 µM |
|  | 57 |  | COC(=O)c1ccc(S(=O)(=O)N[C@@H](Cc2ccccc2)C(=O)N[C@@H](C)C(=O)N[C@@H](CC(C)C)C(=O)N[C@@H](CCCC[N+](C)(C)C)C(=O)N[C@@H](CO)C(N)=O)cc1 (X3-FAL[Lys(Me3)]S-NH2) |  |
|  | 6.7 |  | CC(C)C[C@H](NC(=O)[C@H](C)NC(=O)[C@H](Cc1ccccc1)NS(=O)(=O)c1ccc(C(=O)O)cc1)C(=O)N[C@@H](CCCC[N+](C)(C)C)C(=O)N[C@@H](CO)C(N)=O (X6-FAL[Lys(Me3)]S-NH2) |  |
|  | 53 |  | CC(C)C[C@H](NC(=O)[C@H](C)NC(=O)CNS(=O)(=O)c1ccc(C(=O)O)cc1)C(=O)N[C@@H](CCCC[N+](C)(C)C)C(=O)N[C@@H](CO)C(N)=O (X6-GAL[Lys(Me3)]S-NH2) |  |
|  | > 250 |  | CC(C)C[C@H](NC(=O)[C@H](C)NS(=O)(=O)c1cccnc1)C(=O)N[C@@H](CCCC[N+](C)(C)C)C(=O)N[C@@H](CO)C(N)=O (X7-AL[Lys(Me3)]S-NH2) |  |
|  | 89 |  | CC(C)C[C@H](NC(=O)[C@H](C)NC(=O)Cc1ccccc1Br)C(=O)N[C@@H](CCCC[N+](C)(C)C)C(=O)N[C@@H](CO)C(N)=O (X10-AL[Lys(Me3)]S-NH2) |  |
|  | > 250 |  | COc1ccc(S(=O)(=O)N[C@@H](C)C(=O)N[C@@H](CC(C)C)C(=O)N[C@@H](CCCC[N+](C)(C)C)C(=O)N[C@@H](CO)C(N)=O)cc1 ({Benzenesulfonyl(4-OMe)}-AL[Lys(Me3)]S-NH2) |  |
| 0.22 |  | 0.48 | C[C@H](NC(=O)[C@H](Cc1ccccc1)NC(=O)c1ccc(Br)cc1)C(=O)N[C@H](C(=O)N[C@@H](CCCC[N+](C)(C)C)C(=O)NCCN)C1CCCC1 ({Benzoyl(4-Br)}-FA[Gly(cPent)][Lys(Me3)]-Ethylenediamine) |  |
| 0.2 |  | 1.89 | COC(=O)c1ccc(C(=O)N[C@@H](Cc2ccccc2)C(=O)N[C@@H](C)C(=O)N[C@H](C(=O)N[C@@H](CCCC[N+](C)(C)C)C(=O)NC(CO)CO)C2CCCC2)cc1 ({Benzoyl(4-CO2Me)}-FA[Gly(cPent)][Lys(Me3)]-{NHCH(CH2OH)2}) | Kd [4]: > 500 µM; Kd [5]: 0.29 µM |
|  | 6.2 |  | CC(C)C[C@H](NC(=O)[C@H](C)NC(=O)[C@H](Cc1ccccc1)NC(=O)c1ccc(C(=O)O)cc1)C(=O)N[C@@H](CCCC[N+](C)(C)C)C(=O)N[C@@H](CO)C(N)=O ({Benzoyl(4-COOH)}-FAL[Lys(Me3)]S-NH2) |  |
